From ChEMBL document CHEMBL3044640, “Antifeedant, insect growth regulatory and insecticidal effects of Calceolaria talcana (Calceolariaceae) on Drosophila melanogaster and Spodoptera frugiperda” (2013)
In brackets after ≈: the same amount, converted by molar mass. Activity calls are given as the source filed them. The calls are words filed in the database; no cut-off is given here.

Legend:
Spodoptera frugiperda [1] = assay: Insecticidal activity against larvae of Spodoptera frugiperda (fall armyworm) assessed inhibition of ecdysis at 25 ug/ml, po after 21 days; format: functional, organism-based
Spodoptera frugiperda [2] = assay: Antifeedant activity against larvae of Spodoptera frugiperda (fall armyworm) at 5 ug/ml after 12 to 24 hr; format: functional
Drosophila melanogaster [3] = assay: Antifeedant activity against larvae of Drosophila melanogaster at 100 ug/ml after 12 to 24 hr; format: functional
Spodoptera frugiperda [4] = assay: Antifeedant activity against larvae of Spodoptera frugiperda (fall armyworm) assessed reduction of adult emergence at 10 ppm after 21 days relative to control; format: functional; set-up: scale not given: the % may be the effect or the level left
Spodoptera frugiperda [5] = assay: Insecticidal activity against larvae of Spodoptera frugiperda (fall armyworm) assessed growth index at 50 ppm relative to control; format: functional
Spodoptera frugiperda [6] = assay: Insecticidal activity against larvae of Spodoptera frugiperda (fall armyworm) assessed growth index at 35 ppm; format: functional
Drosophila melanogaster [7] = assay: Insecticidal activity against larvae of Drosophila melanogaster assessed as mortality at 20 ug/ml after 72 hr by not choice test; format: functional
Spodoptera frugiperda [8] = assay: Insecticidal activity against larvae of Spodoptera frugiperda (fall armyworm) assessed growth index at 25 ppm relative to control; format: functional
Spodoptera frugiperda [9] = assay: Antifeedant activity against larvae of Spodoptera frugiperda (fall armyworm) at 50 ug/ml after 12 to 24 hr; format: functional
Spodoptera frugiperda [10] = assay: Insecticidal activity against larvae of Spodoptera frugiperda (fall armyworm) assessed mortality at 50 ppm after 21 days relative to control; format: functional; details: 504 h
Spodoptera frugiperda [11] = assay: Antifeedant activity against larvae of Spodoptera frugiperda (fall armyworm) assessed reduction of pupation at 20 ppm after 21 days relative to control; format: functional; set-up: scale not given: the % may be the effect or the level left
Drosophila melanogaster [12] = assay: Antifeedant activity against larvae of Drosophila melanogaster at 10 ug/ml after 12 to 24 hr; format: functional
Drosophila melanogaster [13] = assay: Antifeedant activity against larvae of Drosophila melanogaster at 25 ug/ml after 12 to 24 hr; format: functional
Spodoptera frugiperda [14] = assay: Insecticidal activity against larvae of Spodoptera frugiperda (fall armyworm) assessed growth index at 10 ppm; format: functional
Spodoptera frugiperda [15] = assay: Insecticidal activity against larvae of Spodoptera frugiperda (fall armyworm) assessed mortality at 35 ppm after 21 days relative to control; format: functional; details: 504 h
Spodoptera frugiperda [16] = assay: Antifeedant activity against larvae of Spodoptera frugiperda (fall armyworm) at 10 ug/ml after 12 to 24 hr; format: functional
Drosophila melanogaster [17] = assay: Insecticidal activity against larvae of Drosophila melanogaster assessed as mortality after 72 hr by not choice test; format: functional
Spodoptera frugiperda [18] = assay: Antifeedant activity against larvae of Spodoptera frugiperda (fall armyworm) at 25 ug/ml after 12 to 24 hr; format: functional
Spodoptera frugiperda [19] = assay: Insecticidal activity against larvae of Spodoptera frugiperda (fall armyworm) assessed growth index at 25 ppm; format: functional
Drosophila melanogaster [20] = assay: Antifeedant activity against larvae of Drosophila melanogaster at 50 ug/ml after 12 to 24 hr; format: functional
Drosophila melanogaster [21] = assay: Insecticidal activity against larvae of Drosophila melanogaster assessed as mortality at 100 ug/ml after 72 hr by not choice test; format: functional
Spodoptera frugiperda [22] = assay: Insecticidal activity against larvae of Spodoptera frugiperda (fall armyworm) assessed growth index at 35 ppm relative to control; format: functional
Spodoptera frugiperda [23] = assay: Antifeedant activity against larvae of Spodoptera frugiperda (fall armyworm) assessed reduction of weight gain at 20 ppm after 21 days relative to control; format: functional; set-up: scale not given: the % may be the effect or the level left
Spodoptera frugiperda [24] = assay: Antifeedant activity against larvae of Spodoptera frugiperda (fall armyworm) assessed reduction of pupation at 10 ppm after 21 days relative to control; format: functional; set-up: scale not given: the % may be the effect or the level left
Spodoptera frugiperda [25] = assay: Insecticidal activity against larvae of Spodoptera frugiperda (fall armyworm) assessed growth index at 50 ppm; format: functional
Spodoptera frugiperda [26] = assay: Insecticidal activity against larvae of Spodoptera frugiperda (fall armyworm) assessed induction of prothetely appearance of precocious pupal structures in larvae at 50 ug/ml, po after 48 to 72 hr; format: functional, organism-based
Spodoptera frugiperda [27] = assay: Insecticidal activity against larvae of Spodoptera frugiperda (fall armyworm) assessed induction of apolysis at 25 ug/ml, po after 21 days; format: functional, organism-based
Spodoptera frugiperda [28] = assay: Antifeedant activity against larvae of Spodoptera frugiperda (fall armyworm) assessed reduction of weight gain at 50 ppm after 21 days relative to control; format: functional; set-up: scale not given: the % may be the effect or the level left
Drosophila melanogaster [29] = assay: Insecticidal activity against larvae of Drosophila melanogaster assessed as mortality at 50 ug/ml after 72 hr by not choice test; format: functional
Spodoptera frugiperda [30] = assay: Antifeedant activity against larvae of Spodoptera frugiperda (fall armyworm) assessed reduction of adult emergence at 35 ppm after 21 days relative to control; format: functional; set-up: scale not given: the % may be the effect or the level left
Spodoptera frugiperda [31] = assay: Antifeedant activity against larvae of Spodoptera frugiperda (fall armyworm) assessed reduction of weight gain at 10 ppm after 21 days relative to control; format: functional; set-up: scale not given: the % may be the effect or the level left
Spodoptera frugiperda [32] = assay: Antifeedant activity against larvae of Spodoptera frugiperda (fall armyworm) assessed reduction of pupation at 50 ppm after 21 days relative to control; format: functional; set-up: scale not given: the % may be the effect or the level left
Spodoptera frugiperda [33] = assay: Antifeedant activity against larvae of Spodoptera frugiperda (fall armyworm) assessed reduction of adult emergence at 20 ppm after 21 days relative to control; format: functional; set-up: scale not given: the % may be the effect or the level left
Spodoptera frugiperda [34] = assay: Antifeedant activity against larvae of Spodoptera frugiperda (fall armyworm) at 100 ug/ml after 12 to 24 hr; format: functional
Spodoptera frugiperda [35] = assay: Antifeedant activity against larvae of Spodoptera frugiperda (fall armyworm) assessed reduction of pupation at 35 ppm after 21 days relative to control; format: functional; set-up: scale not given: the % may be the effect or the level left
Spodoptera frugiperda [36] = assay: Antifeedant activity against larvae of Spodoptera frugiperda (fall armyworm) assessed reduction of adult emergence at 50 ppm after 21 days relative to control; format: functional; set-up: scale not given: the % may be the effect or the level left
Spodoptera frugiperda [37] = assay: Insecticidal activity against larvae of Spodoptera frugiperda (fall armyworm) assessed growth index at 10 ppm relative to control; format: functional
Spodoptera frugiperda [38] = assay: Insecticidal activity against larvae of Spodoptera frugiperda (fall armyworm) assessed mortality at 20 ppm after 21 days relative to control; format: functional; details: 504 h
Spodoptera frugiperda [39] = assay: Antifeedant activity against larvae of Spodoptera frugiperda (fall armyworm) assessed reduction of weight gain at 35 ppm after 21 days relative to control; format: functional; set-up: scale not given: the % may be the effect or the level left
Spodoptera frugiperda [40] = assay: Insecticidal activity against larvae of Spodoptera frugiperda (fall armyworm) assessed mortality at 10 ppm after 21 days relative to control; format: functional; details: 504 h
Spodoptera frugiperda [41] = assay: Antifeedant activity against larvae of Spodoptera frugiperda (fall armyworm) assessed reduction of adult emergence at 25 ppm after 21 days relative to control; format: functional; set-up: scale not given: the % may be the effect or the level left
Spodoptera frugiperda [42] = assay: Antifeedant activity against larvae of Spodoptera frugiperda (fall armyworm) assessed reduction of weight gain at 25 ppm after 21 days relative to control; format: functional; set-up: scale not given: the % may be the effect or the level left
Spodoptera frugiperda [43] = assay: Insecticidal activity against larvae of Spodoptera frugiperda (fall armyworm) assessed mortality at 25 ppm after 21 days relative to control; format: functional; details: 504 h
Spodoptera frugiperda [44] = assay: Antifeedant activity against larvae of Spodoptera frugiperda (fall armyworm) assessed reduction of pupation at 25 ppm after 21 days relative to control; format: functional; set-up: scale not given: the % may be the effect or the level left

| SMILES | AFI (Spodoptera frugiperda [2]) | AFI (Drosophila melanogaster [3]) | Activity (Spodoptera frugiperda [4]) | Ratio (Spodoptera frugiperda [5]) | mortality at 20 µg/mL (Drosophila melanogaster [7]) | Ratio (Spodoptera frugiperda [8]) | AFI (Spodoptera frugiperda [9]) | mortality at 50 ppm (Spodoptera frugiperda [10]) | AFI (Drosophila melanogaster [12]) | AFI (Drosophila melanogaster [13]) | Growth_index (Spodoptera frugiperda [14]) | AFI (Spodoptera frugiperda [16]) | LC50 (Drosophila melanogaster [17]) | AFI (Spodoptera frugiperda [18]) | Growth_index (Spodoptera frugiperda [19]) | AFI (Drosophila melanogaster [20]) | mortality at 100 µg/mL (Drosophila melanogaster [21]) | Activity (Spodoptera frugiperda [24]) | Growth_index (Spodoptera frugiperda [25]) | Activity (Spodoptera frugiperda [28]) | also measured |
| --- | --- | --- | --- | --- | --- | --- | --- | --- | --- | --- | --- | --- | --- | --- | --- | --- | --- | --- | --- | --- | --- |
| C[C@@H]1O[C@@H](O[C@@H]2[C@@H](O)[C@H](OCCc3ccc(O)c(O)c3)O[C@H](CO)[C@H]2OC(=O)/C=C/c2ccc(O)c(O)c2)[C@H](O)[C@H](O)[C@H]1O [ACETOSIDE] | 78.9% | 100% | 0% | 0.1 | 92% | 0.45 | 100% | 100% | 89% | 100% | 0.66 | 88.2% | 8.08 µg/mL (≈ 12.9 µM) | 96.7% | 0.41 | 100% | 100% | 3.1% | 0.07 | 0% | inhibition (Spodoptera frugiperda [1]): Active; Growth_index (Spodoptera frugiperda [6]): 0.09; Activity (Spodoptera frugiperda [11]): 3.1%; mortality at 35 ppm (Spodoptera frugiperda [15]): 100%; Ratio (Spodoptera frugiperda [22]): 0.15; Activity (Spodoptera frugiperda [23]): 1.35%; Activity (Spodoptera frugiperda [26]): Active; Activity (Spodoptera frugiperda [27]): Active; mortality at 50 µg/mL (Drosophila melanogaster [29]): 100%; Activity (Spodoptera frugiperda [30]): 0%; Activity (Spodoptera frugiperda [31]): 2.15%; Activity (Spodoptera frugiperda [32]): 0%; Activity (Spodoptera frugiperda [33]): 0%; AFI (Spodoptera frugiperda [34]): 100%; Activity (Spodoptera frugiperda [35]): 0%; Activity (Spodoptera frugiperda [36]): 0%; Ratio (Spodoptera frugiperda [37]): 0.67; mortality at 20 ppm (Spodoptera frugiperda [38]): 100%; Activity (Spodoptera frugiperda [39]): 0%; mortality at 10 ppm (Spodoptera frugiperda [40]): 81.3% |
| CC(=O)O[C@@H]1C[C@H]2C(C)(C)C(=O)C=C[C@]2(C)[C@H]2CC[C@@]3(C)[C@H](c4ccoc4)OC(=O)[C@H]4O[C@]43[C@@]21C [GEDUNIN] | 68.8% | 100% | 15% | 0.11 | 87.1% | 0.55 | 89.9% | 100% | 81% | 98% | 0.77 | 74.5% | 11.9 µg/mL (≈ 24.7 µM) | 85.6% | 0.51 | 100% | 100% | 54.2% | 0.1 | 0% | Activity (Spodoptera frugiperda [41]): 13%; Activity (Spodoptera frugiperda [42]): 1.35%; mortality at 50 µg/mL (Drosophila melanogaster [29]): 100%; Activity (Spodoptera frugiperda [31]): 2.05%; Activity (Spodoptera frugiperda [32]): 0%; mortality at 25 ppm (Spodoptera frugiperda [43]): 8.4%; AFI (Spodoptera frugiperda [34]): 100%; Activity (Spodoptera frugiperda [44]): 41.7%; Activity (Spodoptera frugiperda [36]): 0%; Ratio (Spodoptera frugiperda [37]): 0.71; mortality at 10 ppm (Spodoptera frugiperda [40]): 11.6% |
